In patent publication US20240415790A1, “A COMPOSITION FOR USE IN THE TREATMENT OF INTERVERTEBRAL DISC HERNIATION” (STAYBLE THERAPEUTICS AB, priority 2020, published 2024):
“And” between values parts separate entries of the source, which are not always exact repeats. Identical values can stand only once.

Assays:
[1] = test system: patients with chronic discogenic low back pain; test: Randomized placebo-controlled single ascending dose study, safety and tolerability of intradiscal injection; type: in vivo, human
Source text: The study was a randomized, double-blinded, placebo-controlled, single ascending dose study with the primary objective to evaluate safety and tolerability following intradiscal injection of LA in Omnipaque or placebo (Omnipaque) in 15 patients with chronic discogenic low back pain. The secondary objective was to assess effects on the NP and disc height using T2-weighted MRI. […] Prior to dose escalation, the safety review committee assessed all safety data up to Visit 3 (1 week after treatment). In case of any safety or tolerability concerns, dosing could be discontinued, or the planned dose could be lowered. The test product in this study was containing the active ingredient (S)-LA, which was provided to the site as a sterile solution in a syringe for single use. The LA doses administered were 45, 90 and 180 mg in a volume of 1.5 mL, corresponding to LA concentrations of 30, 60 and 120 mg/mL. The formulation for administration was prepared extempore and contained the contrast agent iohexol (Omnipaque™) and water for injection. The final concentration of iohexol in the injected solution was 388 mg/mL. Small amounts of tromethamine, Na2Ca edetate and HCl were also present. The solution was clear and colourless to slightly coloured. At the treatment day, patients received premedication with a sedative or anxiolytic and antibiotics, given as an i.v. infusion approximately 15 min before the intradiscal injection. The patient was placed in the right lateral decubitus position and injection was done using the two-needle technique under fluoroscopy guidance. Once correct intradiscal needle placement had been confirmed, a small volume (approximately 0.5 mL) of the formulation was first injected slowly (during half a minute) to verify that the distribution of the injectate was confined to the disc and that there was no leakage. If no leakage had occurred within half a minute, this procedure was repeated twice until the entire volume (1.5 mL) had been injected. If there was any leakage from the disc during injection, either after injection of a small volume or the entire volume (1.5 mL), the injection was interrupted. […] All patients stayed overnight at the clinic after the injection, for observation and safety assessments. After leaving the clinic, patients were to be treated with analgesics and/or other measures according to standard clinical practice. They were also given advice on restricted physical activity during the first week. Physical examination, blood pressure, heart rate, electrocardiogram (ECG), clinical chemistry and hematology were assessed using routine clinical methods. Pain during and 15 min after injection was measured using a VAS scale (0-100 mm) and the patient reported whether or not the pain reproduced the pain normally experienced in terms of location and type of pain. The distribution of Omnipaque within the IVD was documented according to the Dallas discogram scale. Local site reactions to the injection were noted, and AEs were graded for seriousness, intensity, and causality to the treatment. SAEs were defined according to the International Conference of Harmonisation guideline E2A.

[2] = test system: porcine IVD; test: T2-weighted MRI and photographs of porcine IVD after LA (series 3), disc height and width; type: in vivo; settings: pig
Method: Since effects of LA on the NP in the subsequent clinical study was planned to be assessed using MRI, the third series focused on the effects of LA (0.2 mL, 60 mg/mL) on sclerotization as measured by T2-weighted MRI. In addition, effects of LA on the expression of collagen I and II were studied by immunohistochemistry (IHC). […] MR images were obtained using a 7T small animal MRI system (Bruker Biospec). A single 50 mm volume coil array was used (Tx/Rx). The dissected spines were stripped of the attached muscles, the spinous processes, transverse processes, and posterior aspects of the facet joints to allow them to fit in the MRI system. T2-weighted (TR: 2500-2834 ms, TE: 33-35.84 ms), 2D TurboRARE transversal and sagittal sequences were used. The TR and TE could not be maintained the same for all sequences due to required adjustments in field of view the different specimens, leading to an increased pixel matrix which affected the TR and TE. For the transverse sequences, a 500 μm slice thickness with 750 μm interslice distance and an in-plane resolution of 166×166 μm was used. For the sagittal sequences, a 750 μm slice thickness with 2000 μm interslice distance and an in-place resolution of 166×166 μm was used. […] Images were analyzed using Sante DICOM Viewer (version 8.1.5, Santesoft, Athens, Greece). The treated IVDs in all animals were assessed, and the IVD one level above the treated IVD was scanned as control. The size of the NP was quantified using both MR images and photographs of the IVDs (see FIG. 6). The results from the macroscopic and MR analyses were then correlated. […] The relative disc height was expressed as a ratio of height of treated IVD/height of untreated (control) IVD. Analogously, the relative disc width was expressed as a ratio of width of treated IVD/width of untreated (control) IVD.

[3] = individual animals 1-5, LA 0.2 mL 60 mg/mL
[4] = mean of 5 animals, LA 0.2 mL 60 mg/mL

CC(O)C(=O)O (stereo not shown) [LA, lactic acid]
Adverse events by causality, Possible, m number of events ([1]; LA 30 mg/ml (n = 3)): 0 | Adverse events by causality, Possible, n (%) number of patients ([1]; LA 30 mg/ml (n = 3)): 0 | Adverse events by causality, Probable, m number of events ([1]; LA 30 mg/ml (n = 3)): 1 | Adverse events by causality, Probable, n (%) number of patients ([1]; LA 30 mg/ml (n = 3)): 1 (33%) | Adverse events by causality, Unlikely, m number of events ([1]; LA 30 mg/ml (n = 3)): 3 | Adverse events by causality, Unlikely, n (%) number of patients ([1]; LA 30 mg/ml (n = 3)): 2 (67%) | Adverse events by severity, Mild, m number of events ([1]; LA 30 mg/ml (n = 3)): 2 | Adverse events by severity, Mild, n (%) number of patients ([1]; LA 30 mg/ml (n = 3)): 1 (33%) | Adverse events by severity, Moderate, m number of events ([1]; LA 30 mg/ml (n = 3)): 2 | Adverse events by severity, Moderate, n (%) number of patients ([1]; LA 30 mg/ml (n = 3)): 1 (33%) | Adverse events by severity, Severe, m number of events ([1]; LA 30 mg/ml (n = 3)): 0 | Adverse events by severity, Severe, n (%) number of patients ([1]; LA 30 mg/ml (n = 3)): 0 | Any adverse event, m number of events ([1]; LA 30 mg/ml (n = 3)): 4 | Any adverse event, n (%) number of patients ([1]; LA 30 mg/ml (n = 3)): 2 (67%) | Any serious adverse event, m number of events ([1]; LA 30 mg/ml (n = 3)): 0 | Any serious adverse event, n (%) number of patients ([1]; LA 30 mg/ml (n = 3)): 0 | Adverse events by causality, Possible, m number of events ([1]; LA 60 mg/ml (n = 3)): 0 | Adverse events by causality, Possible, n (%) number of patients ([1]; LA 60 mg/ml (n = 3)): 0 | Adverse events by causality, Probable, m number of events ([1]; LA 60 mg/ml (n = 3)): 3 | Adverse events by causality, Probable, n (%) number of patients ([1]; LA 60 mg/ml (n = 3)): 3 (100%) | Adverse events by causality, Unlikely, m number of events ([1]; LA 60 mg/ml (n = 3)): 0 | Adverse events by causality, Unlikely, n (%) number of patients ([1]; LA 60 mg/ml (n = 3)): 0 | Adverse events by severity, Mild, m number of events ([1]; LA 60 mg/ml (n = 3)): 1 | Adverse events by severity, Mild, n (%) number of patients ([1]; LA 60 mg/ml (n = 3)): 1 (33%) | Adverse events by severity, Moderate, m number of events ([1]; LA 60 mg/ml (n = 3)): 2 | Adverse events by severity, Moderate, n (%) number of patients ([1]; LA 60 mg/ml (n = 3)): 2 (67%) | Adverse events by severity, Severe, m number of events ([1]; LA 60 mg/ml (n = 3)): 0 | Adverse events by severity, Severe, n (%) number of patients ([1]; LA 60 mg/ml (n = 3)): 0 | Any adverse event, m number of events ([1]; LA 60 mg/ml (n = 3)): 3 | Any adverse event, n (%) number of patients ([1]; LA 60 mg/ml (n = 3)): 3 (100%) | Any serious adverse event, m number of events ([1]; LA 60 mg/ml (n = 3)): 0 | Any serious adverse event, n (%) number of patients ([1]; LA 60 mg/ml (n = 3)): 0 | Adverse events by causality, Possible, m number of events ([1]; LA 120 mg/ml (n = 3)): 1 | Adverse events by causality, Possible, n (%) number of patients ([1]; LA 120 mg/ml (n = 3)): 1 (33%) | Adverse events by causality, Probable, m number of events ([1]; LA 120 mg/ml (n = 3)): 4 | Adverse events by causality, Probable, n (%) number of patients ([1]; LA 120 mg/ml (n = 3)): 2 (67%) | Adverse events by causality, Unlikely, m number of events ([1]; LA 120 mg/ml (n = 3)): 3 | Adverse events by causality, Unlikely, n (%) number of patients ([1]; LA 120 mg/ml (n = 3)): 2 (67%) | Adverse events by severity, Mild, m number of events ([1]; LA 120 mg/ml (n = 3)): 6 | Adverse events by severity, Mild, n (%) number of patients ([1]; LA 120 mg/ml (n = 3)): 3 (100%) | Adverse events by severity, Moderate, m number of events ([1]; LA 120 mg/ml (n = 3)): 2 | Adverse events by severity, Moderate, n (%) number of patients ([1]; LA 120 mg/ml (n = 3)): 1 (33%) | Adverse events by severity, Severe, m number of events ([1]; LA 120 mg/ml (n = 3)): 0 | Adverse events by severity, Severe, n (%) number of patients ([1]; LA 120 mg/ml (n = 3)): 0 | Any adverse event, m number of events ([1]; LA 120 mg/ml (n = 3)): 8 | Any adverse event, n (%) number of patients ([1]; LA 120 mg/ml (n = 3)): 3 (100%) | Any serious adverse event, m number of events ([1]; LA 120 mg/ml (n = 3)): 0 | Any serious adverse event, n (%) number of patients ([1]; LA 120 mg/ml (n = 3)): 0 | Safety and tolerability of the treatment ([1]; patients, intradiscal 45-180 mg): safe and tolerable | Height of the treated IVD on MR image (FIG. 12) ([2]; 60 mg/ml LA, 30 days prior to the image, vs untreated control IVD): significant reduction in height | T2-weighted MRI intensity of the sclerotized NP ([2]; LA 60 mg/mL): much lower | Relative disc height (treated IVD/untreated control IVD) [2, 3]: 0.55 and 0.2 and 0.33 and 0.7 and 0.36 | Relative disc width (treated IVD/untreated control IVD) [2, 3]: 1 and 1.01 and 0.99 (2×) and 1.04 | Relative disc height, mean value [2, 4]: 0.43 | Relative disc width, mean value [2, 4]: 1.01
